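A five-concentration, 48-hour dose response in 96-well plates underlies each endpoint, interpolated linearly between surrounding concentrations. GI50 is the concentration that inhibits growth by half.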 Calls of active or inactive are those of the source. No stated cut-off is given here; in the data, active = GI50 up to about 1.1 µM and inactive = higher.
How the values were obtained:
Test in all cases: DTP human tumour cell line panel, 48 h
[1] = test system: CCRF-CEM
[2] = test system: MDA-MB-435
[3] = test system: SK-MEL-28
[4] = test system: SK-MEL-2
[5] = test system: NCI-H23
[6] = test system: OVCAR-5
[7] = test system: MCF7
[8] = test system: A549
[9] = test system: MDA-MB-231
[10] = test system: M14
[11] = test system: DU-145
[12] = test system: HL-60
[13] = test system: NCI-H460
[14] = test system: SN12C
[15] = test system: BT-549
[16] = test system: MOLT-4
[17] = test system: OVCAR-4
[18] = test system: A498
[19] = test system: UACC-257
[20] = test system: IGROV-1

Row | Structure (SMILES) | GI50 [1] | GI50 [2] | GI50 [3] | GI50 [4] | GI50 [5] | GI50 [6] | GI50 [7] | GI50 [8] | GI50 [9] | GI50 [10] | GI50 [11] | GI50 [12] | GI50 [13] | GI50 [14] | GI50 [15] | GI50 [16] | GI50 [17] | GI50 [18] | GI50 [19] | GI50 [20]
1 | O=C(NCCCCCCNC(=O)c1cccc2ccccc12)Nc1cccc2ccccc12 | > 100 µM (inactive) | > 100 µM (inactive) | > 100 µM (inactive) | > 100 µM (inactive) | > 100 µM (inactive) | > 100 µM (inactive) | > 100 µM (inactive) | > 100 µM (inactive) | > 100 µM (inactive) | > 100 µM (inactive) | > 100 µM (inactive) | > 100 µM (inactive) | > 100 µM (inactive) | > 100 µM (inactive) | > 100 µM (inactive) | > 100 µM (inactive) | > 100 µM (inactive) | > 100 µM (inactive) | > 100 µM (inactive) | > 100 µM (inactive)
2 | O=C1Nc2ccccc2/C1=N/Nc1ccc([N+](=O)[O-])cc1 | 22.4 µM (inactive) | 40.3 µM (inactive) | 41.3 µM (inactive) | 58.2 µM (inactive) | 21.5 µM (inactive) | 20.4 µM (inactive) | 37.8 µM (inactive) | 24.4 µM (inactive) | 24.8 µM (inactive) | 30.8 µM (inactive) | 12.9 µM (inactive) | 15.1 µM (inactive) | 30.1 µM (inactive) | 22.6 µM (inactive) | 16.5 µM (inactive) | 21.1 µM (inactive) | 14.4 µM (inactive) | 15.2 µM (inactive) | 29.5 µM (inactive) | 14.6 µM (inactive)
3 | CC(=O)NNc1nc(C)c(C(/C=C/c2ccc(NC(C)=O)cc2)=N/NS(=O)(=O)c2ccc(C)cc2)s1 | > 100 µM (inactive) | > 100 µM (inactive) | > 100 µM (inactive) | > 100 µM (inactive) | > 100 µM (inactive) | > 100 µM (inactive) | > 100 µM (inactive) | > 100 µM (inactive) | > 100 µM (inactive) | > 100 µM (inactive) | > 100 µM (inactive) | > 100 µM (inactive) | > 100 µM (inactive) | > 100 µM (inactive) | > 100 µM (inactive) | > 100 µM (inactive) | > 100 µM (inactive) | > 100 µM (inactive) | > 100 µM (inactive) | > 100 µM (inactive)
4 | CC(=O)N1C=Cc2c(c(C)c3c([nH]c4ccccc43)c2C)C1 | 12.8 µM (inactive) | 13 µM (inactive) | 15.3 µM (inactive) | 12.3 µM (inactive) | 5.92 µM (inactive) | 9.25 µM (inactive) | 2.72 µM (inactive) | 4.54 µM (inactive) | 3.2 µM (inactive) | 7.28 µM (inactive) | 11.5 µM (inactive) | 23.1 µM (inactive) | 1.23 µM (inactive) | 3.8 µM (inactive) | 3.33 µM (inactive) | 13.1 µM (inactive) | 2.13 µM (inactive) | 14.8 µM (inactive) | 15.1 µM (inactive) | 3.76 µM (inactive)
5 | O=C1C(OC(=O)c2ccccc2)=C(c2ccc(O)cc2)C(=O)C(OC(=O)c2ccccc2)=C1c1ccc(O)cc1 | 42.9 µM (inactive) | > 100 µM (inactive) | > 100 µM (inactive) | 32 µM (inactive) | > 100 µM (inactive) | > 100 µM (inactive) | > 100 µM (inactive) | > 100 µM (inactive) | > 100 µM (inactive) | > 100 µM (inactive) | > 100 µM (inactive) | > 100 µM (inactive) | 74.1 µM (inactive) | > 100 µM (inactive) | > 100 µM (inactive) | 36 µM (inactive) | 51.9 µM (inactive) | > 100 µM (inactive) | > 100 µM (inactive) | > 100 µM (inactive)
6 | CC(C)C(Br)C(=O)NCC(=O)O (stereo not given) | > 100 µM (inactive) | > 100 µM (inactive) | > 100 µM (inactive) | > 100 µM (inactive) | > 100 µM (inactive) | > 100 µM (inactive) | > 100 µM (inactive) | > 100 µM (inactive) | > 100 µM (inactive) | > 100 µM (inactive) | > 100 µM (inactive) | 0.245 µM (active) | > 100 µM (inactive) | > 100 µM (inactive) | > 100 µM (inactive) | > 100 µM (inactive) | > 100 µM (inactive) | > 100 µM (inactive) | > 100 µM (inactive) | > 100 µM (inactive)
7 | COC(=O)c1cc(C#N)[nH]c1-c1cc(Br)cs1 | 13.8 µM (inactive) | 13.3 µM (inactive) | 14.5 µM (inactive) | 12.8 µM (inactive) | 6.67 µM (inactive) | 16.3 µM (inactive) | 7.24 µM (inactive) | 10.5 µM (inactive) | 20.2 µM (inactive) | 14.3 µM (inactive) | 13.3 µM (inactive) | 13.2 µM (inactive) | 19.8 µM (inactive) | 14.9 µM (inactive) | 12.9 µM (inactive) | 17.9 µM (inactive) | 4.54 µM (inactive) | 4.97 µM (inactive) | 11.4 µM (inactive) | 13.4 µM (inactive)
8 | CC1=CC(=O)c2ccccc2C1=O [MENADIONE] | 2.03 µM (inactive) | 1.84 µM (inactive) | 4.94 µM (inactive) | 8.3 µM (inactive) | 7.06 µM (inactive) | 11.8 µM (inactive) | 8.34 µM (inactive) | 18.5 µM (inactive) | 5.06 µM (inactive) | 5.66 µM (inactive) | 15.9 µM (inactive) | 2 µM (inactive) | 11.5 µM (inactive) | 12.4 µM (inactive) | 12.3 µM (inactive) | 1.77 µM (inactive) | 3.87 µM (inactive) | 22.6 µM (inactive) | 4.17 µM (inactive) | 15.7 µM (inactive)
9 | CN1CC=C(c2c(N)nc(N)[nH]c2=O)CC1 | > 100 µM (inactive) | > 100 µM (inactive) | > 100 µM (inactive) | > 100 µM (inactive) | > 100 µM (inactive) | > 100 µM (inactive) | > 100 µM (inactive) | > 100 µM (inactive) | > 100 µM (inactive) | > 100 µM (inactive) | > 100 µM (inactive) | > 100 µM (inactive) | > 100 µM (inactive) | > 100 µM (inactive) | > 100 µM (inactive) | > 100 µM (inactive) | > 100 µM (inactive) | > 100 µM (inactive) | > 100 µM (inactive) | > 100 µM (inactive)
10 | CC1(C)C(C(=O)OC(C#N)c2cccc(OCC(=O)OCc3ccccc3)c2)C1(C)C (stereo not given) | 19.5 µM (inactive) | > 100 µM (inactive) | 63.2 µM (inactive) | 20.4 µM (inactive) | 37.4 µM (inactive) | > 100 µM (inactive) | 53 µM (inactive) | > 100 µM (inactive) | 66.1 µM (inactive) | 48.6 µM (inactive) | > 100 µM (inactive) | 2.3 µM (inactive) | > 100 µM (inactive) | > 100 µM (inactive) | > 100 µM (inactive) | 18 µM (inactive) | > 100 µM (inactive) | > 100 µM (inactive) | 55.6 µM (inactive) | > 100 µM (inactive)

Source: ChEMBL document CHEMBL1201862, “PubChem BioAssay data set” (2004)
